How the values were obtained:
[1] = target: T1, carnitine/acylcarnitine carrier (CAC) in intact rat liver mitochondria (Rattus norvegicus, UniProt P97521); experiment: [3H]-carnitine uptake (CAC transport) in intact mitochondria; assay type: biochemical; details: 50 μM, after 120 min, 0.05 mM [3H]-carnitine
T1 construct: The measurement of CAC activity in isolated entire mitochondria has been performed as previously described; from tissue; host or cells: rat liver mitochondria (intact organelles)
T1 sequence (P97521 1-301): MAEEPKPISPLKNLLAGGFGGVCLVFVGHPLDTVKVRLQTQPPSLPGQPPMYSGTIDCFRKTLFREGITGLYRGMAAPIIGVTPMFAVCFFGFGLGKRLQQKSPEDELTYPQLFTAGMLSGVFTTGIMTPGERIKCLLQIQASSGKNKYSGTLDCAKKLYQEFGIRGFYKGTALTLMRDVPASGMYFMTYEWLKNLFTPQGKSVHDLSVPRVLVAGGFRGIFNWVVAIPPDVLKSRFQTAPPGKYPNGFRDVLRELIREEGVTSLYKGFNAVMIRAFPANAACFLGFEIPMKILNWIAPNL
Protocol: The purification of crude rat mitochondria and the measurement of CAC transport activity are described in Materials and Methods. The uptake of carnitine was started by adding 0.05 mM [^3H]-carnitine in the presence or absence of 50 μM DAN (dissolved in 1:1 DMSO/H2O). The transport activity was inhibited at various times by adding cold 1 mM N-ethylmaleimide (NEM) in a buffer containing 150 mM sucrose, 50 mM TRIS-HCl, 50 mM KCl. […] Addition of DAN to intact mitochondria induced an increase of transport function up to 41% after 120 min.
In order to isolate crude mitochondria from rat liver, a standard protocol was performed, involving cell destruction by mechanical stress, isolation by differential centrifugation in order to eliminate various subcellular contaminations, and purification by centrifugation on colloidal silica Percoll 30% gradient. The average purity of the mitochondrial preparation was monitored by measuring the specific activity of alkaline phosphatase (EC 3.1.3.1). The specific activity of alkaline phosphatase, in the mitochondria preparations was measured at 37 °C as substrate consumed per min per mg protein [55]. […] The purified mitochondria (5 mg/100 μL) were incubated for 2 h with 20 mM carnitine, washed three times with a buffer containing 150 mM sucrose, 50 mM TRIS-HCl, 50 mM KCl, and the transport activity was measured. […]

[2] = target: T2, beta amyloid peptide 1–40 (Aβ40) (Homo sapiens, UniProt P05067); experiment: Inhibition of Aβ40 self-aggregation (ThT fluorescence, 2% HFIP); assay type: biochemical; details: inhibitor 100 μM, Aβ40 30 μM
T2 construct: beta amyloid peptide 1–40 (Aβ40); purchased Sigma-Aldrich Europe (Milan, Italy)
T2 sequence (P05067 672-711 limits assumed): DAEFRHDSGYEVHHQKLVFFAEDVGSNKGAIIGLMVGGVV
Description: As an additional proof of the potential of DAN in interfering with AD-related processes, we investigated the effects on the in vitro self-aggregation of beta amyloid peptide 1–40 (Aβ40) and Tau hexapeptide (306)VQIVYK(311) (PHF6). Aβ40 is used as an in vitro probe of the fibrillization process leading to amyloid fibrils and ultimately to senile plaques in AD [32], while PHF6 represents the highly proaggregating sequence of the repeated domain R3 of Tau protein, responsible of the formation of neurofibrillary tangles and other tauopathies in NDs. With this aim, we developed a fast screening method of Aβ40 aggregation using thioflavin T (ThT) as fluorescent probe and 2% 1,1,1,3,3,3-hexafluoro-2-propanol (HFIP) as aggregation enhancer. Regarding PHF6, we started from an already published methodology for the setup of an in-house method, with 2,2,2-trifluoroethanol (TFE) as the cosolvent. […] Quercetin was used as a standard reference for the inhibition of amyloid aggregation. The concentrations of inhibitors were 100 μM and 25 μM in Aβ40 and in PHF6 assay, respectively. […]
An already established assay was used in a 96-well plate procedure, using HFIP as aggregation enhancer. […] After addition of ThT, the fluorescence was read at 440/485 excitation/emission wavelength. […] Inhibition values were calculated by means of Prism.

[3] = ABTS radical scavenging assay; assay type: physicochemical; details: compound at 0.2·[ABTS+]
Description: Starting from these evidences, we tested DAN in two in vitro models of radical scavenging activity, i.e., the 1,1-diphenyl-2-picryl-hydrazyl (DPPH) and 2,2′-azinobis-(3-ethylbenzothiazoline-6-sulfonic acid) (ABTS) free radical production. Both generate stable nitrogen radicals showing high absorption in visible spectrum, thus allowing easy and straightforward spectrophotometric measures. […] It can be assumed that the antioxidant activity of DAN is independent from its radical scavenging properties.
Already published protocols for DPPH and […] radical scavenging were used. The scavenging of the radical DPPH^·, or the monocation radical ABTS^·+, were determined by measuring the loss of absorbance at 515 or 755 nm, respectively. Samples were prepared in clear polystyrene flat-bottomed 96-well microplates. […] A preliminary absorbance reading at 755 nm allowed to determine the actual ABTS^·+ concentration (normally 60–70 μM; extinction coefficient ε = 12,000) and set the final concentration of inhibitors to 0.2[ABTS^·+]. 215 μL of ABTS^·+ solution were mixed with 35 μL of stock solution of inhibitors and the decrease in absorbance was monitored. Antioxidant activity was determined from Equation (2) as the percentage of radical production of inhibitor containing samples, compared with control: % radical production = 100 × ABSsample/ABScontrol(2)

[4] = parameters: method as in PMID 11735355; details: cited from earlier work

For `O=C1CN(/N=C/c2ccc(-c3ccc([N+](=O)[O-])cc3)o2)C(O)=N1` [Dantrolene], the “increase of CAC transport function in intact mitochondria” value [1] was 41%, the inhibition at 100 µM [2] was 56% and the “ABTS radical scavenging activity” value [3] was “no activity”. For the same compound, the “antioxidant potency, inhibition of Fe2+/thiocyanate peroxidation of linoleic acid” value [4] was “high antioxidant potency”.
